Experimental data from US20140343008A1, “HEPATITIS C TREATMENT” (Gilead Pharmasset LLC, priority 2013, published 2014).
Like-named read-outs stand apart in the source and are kept apart here. Values belong to the compound of their own block, whether it stands above or below them.

Assays:
[1] = test system: human colon carcinoma cell line (caco-2); test: Bidirectional permeability of sofosbuvir in caco-2 monolayers; conditions: for Papp of sofosbuvir, Forward, Average / Papp of sofosbuvir, Forward, Repat 2 / Papp of sofosbuvir, Forward, Repeat 1 / Papp of sofosbuvir, Reverse, Average / Papp of sofosbuvir, Reverse, Repat 2 / Papp of sofosbuvir, Reverse, Repeat 1 / effect of coincubation on permeability/efflux of sofosbuvir, fold increase: human, Caco-2, 120 min, pH 7.4
Procedure: (§1) Caco-2 human intestinal epithelial cell monolayers cultured for twenty-one to twenty-eight days were plated on 12 well Transwell® dual chamber plates.
(§2) Assays were run in duplicate (n=2) in one to two separate experiments. Assay buffer at pH 7.4 was placed in both chambers. Hanks buffer with 1% BSA was used in receiver compartment.
(§3) Apical side was dosed for apical-to-basolateral (A to B) assessment. Basolateral side was dosed for basolateral-to-apical (B to A) assessment. Donor side was sampled at time points of 0 and 120 minutes.
(§4) Receiver side was sampled at time points: 60 and 120 minutes.
(§5) The apparent permeability, Papp, and % recovery were calculated as follows: […]
(§6) Where, dR/dt is the slope of the cumulative concentration in the receiver compartment versus time in μM/s based on receiver concentrations measured at 60 and 120 minutes. Vr and Vd are the volumes in the receiver and donor compartment in cm^3, respectively. A is the area of the cell monolayer (1.12 cm^2). D0 and D120 are the measured donor concentrations at the beginning and end of the experiment, respectively. R120 is the receiver concentration at the end of the experiment (120 minutes).

BCRP = molecular target: T1, BCRP (Homo sapiens, UniProt Q9UNQ0); test: In vitro drug transporter inhibition, BCRP; assay type: in vitro ADME
T1 sequence (Q9UNQ0 1-655): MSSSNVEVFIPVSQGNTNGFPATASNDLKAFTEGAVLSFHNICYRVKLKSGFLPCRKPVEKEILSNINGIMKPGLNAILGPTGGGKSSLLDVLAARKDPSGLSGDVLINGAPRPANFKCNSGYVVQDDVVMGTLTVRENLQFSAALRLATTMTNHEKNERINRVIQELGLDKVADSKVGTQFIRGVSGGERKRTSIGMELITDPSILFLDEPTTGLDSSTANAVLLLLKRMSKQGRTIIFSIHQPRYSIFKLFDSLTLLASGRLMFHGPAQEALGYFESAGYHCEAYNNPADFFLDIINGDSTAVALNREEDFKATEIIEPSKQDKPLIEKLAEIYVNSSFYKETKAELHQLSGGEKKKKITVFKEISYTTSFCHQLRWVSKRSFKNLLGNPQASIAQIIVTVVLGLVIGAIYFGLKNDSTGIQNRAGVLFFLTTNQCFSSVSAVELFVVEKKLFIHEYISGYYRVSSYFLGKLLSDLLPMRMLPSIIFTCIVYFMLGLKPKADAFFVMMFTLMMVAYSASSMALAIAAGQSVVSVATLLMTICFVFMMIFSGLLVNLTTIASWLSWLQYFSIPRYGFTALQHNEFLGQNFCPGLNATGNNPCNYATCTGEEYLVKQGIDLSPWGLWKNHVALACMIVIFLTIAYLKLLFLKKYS
Text: (§7) Based on the results of Example 1, it was contemplated that Compound I increased the exposure of sofosbuvir by inhibiting the activities of one or more drug transporters. This example carried out in vitro experiments to test whether Compound I inhibited any of the potentially relevant drug transporters, […], BCRP and P-gp.

[2] = Phase I pharmacokinetic study of the combination of Compound I and sofosbuvir in healthy volunteers; assay type: in vivo, human; conditions: for Ctau, Mean / Cmax / AUC / AUC(0-inf) / AUC(0-t): n = 18; for Cmax / AUC / AUC(0-inf) / AUC(0-t): both sexes, human; for AUC: read-out: AUCtau, Mean; for AUC(0-inf): healthy volunteers, read-out: AUCinf, Mean; for AUC(0-t): read-out: AUClast, Mean
Text: This example studied the pharmacokinetics (PK) of the combination of Compound I and sofosbuvir (SOF), along with two metabolites of SOF, Metabolite I and II, in healthy volunteers, as part of a Phase I clinical study for Compound I.
This was a randomized, open label, single-center, multiple-dose study that enrolled Healthy males and non-pregnant, non-lactating females from 18 to 45 years old. The duration of the study was up to 38 days, and duration of the treatment was 28 days.
Additional specific exclusion criteria included, (1) use of over the counter (OTC) or prescribed medications that affect gastric pH (i.e., antacids, H2 receptor antagonists (H2RAs), and/or proton-pump inhibitors (PPIs)) 28 days prior to baseline and (2) history of severe peptic ulcer disease, GERD, or other stomach acid diseases requiring prolonged (>6 months) medication or surgical therapy to modify gastric pH. […]
Plasma concentrations and pharmacokinetic parameters for the compounds were listed and summarized using descriptive statistics by treatment. In addition, an analysis of variance (ANOVA) using a mixed-effects model with treatment, period, sequence as fixed effects and subject within sequence as a random effect were fitted to the natural logarithmic transformation of PK parameters (AUCinf, AUClast, and Cmax).
The 90% confidence intervals were constructed for the ratio of geometric least-squares means of primary PK parameters for each of the test treatments (as shown in Table 1).

P-gp = P-gp (Homo sapiens, UniProt P08183); test: In vitro drug transporter inhibition, P-gp; assay type: in vitro ADME
P-gp, sequence (P08183 whole entry): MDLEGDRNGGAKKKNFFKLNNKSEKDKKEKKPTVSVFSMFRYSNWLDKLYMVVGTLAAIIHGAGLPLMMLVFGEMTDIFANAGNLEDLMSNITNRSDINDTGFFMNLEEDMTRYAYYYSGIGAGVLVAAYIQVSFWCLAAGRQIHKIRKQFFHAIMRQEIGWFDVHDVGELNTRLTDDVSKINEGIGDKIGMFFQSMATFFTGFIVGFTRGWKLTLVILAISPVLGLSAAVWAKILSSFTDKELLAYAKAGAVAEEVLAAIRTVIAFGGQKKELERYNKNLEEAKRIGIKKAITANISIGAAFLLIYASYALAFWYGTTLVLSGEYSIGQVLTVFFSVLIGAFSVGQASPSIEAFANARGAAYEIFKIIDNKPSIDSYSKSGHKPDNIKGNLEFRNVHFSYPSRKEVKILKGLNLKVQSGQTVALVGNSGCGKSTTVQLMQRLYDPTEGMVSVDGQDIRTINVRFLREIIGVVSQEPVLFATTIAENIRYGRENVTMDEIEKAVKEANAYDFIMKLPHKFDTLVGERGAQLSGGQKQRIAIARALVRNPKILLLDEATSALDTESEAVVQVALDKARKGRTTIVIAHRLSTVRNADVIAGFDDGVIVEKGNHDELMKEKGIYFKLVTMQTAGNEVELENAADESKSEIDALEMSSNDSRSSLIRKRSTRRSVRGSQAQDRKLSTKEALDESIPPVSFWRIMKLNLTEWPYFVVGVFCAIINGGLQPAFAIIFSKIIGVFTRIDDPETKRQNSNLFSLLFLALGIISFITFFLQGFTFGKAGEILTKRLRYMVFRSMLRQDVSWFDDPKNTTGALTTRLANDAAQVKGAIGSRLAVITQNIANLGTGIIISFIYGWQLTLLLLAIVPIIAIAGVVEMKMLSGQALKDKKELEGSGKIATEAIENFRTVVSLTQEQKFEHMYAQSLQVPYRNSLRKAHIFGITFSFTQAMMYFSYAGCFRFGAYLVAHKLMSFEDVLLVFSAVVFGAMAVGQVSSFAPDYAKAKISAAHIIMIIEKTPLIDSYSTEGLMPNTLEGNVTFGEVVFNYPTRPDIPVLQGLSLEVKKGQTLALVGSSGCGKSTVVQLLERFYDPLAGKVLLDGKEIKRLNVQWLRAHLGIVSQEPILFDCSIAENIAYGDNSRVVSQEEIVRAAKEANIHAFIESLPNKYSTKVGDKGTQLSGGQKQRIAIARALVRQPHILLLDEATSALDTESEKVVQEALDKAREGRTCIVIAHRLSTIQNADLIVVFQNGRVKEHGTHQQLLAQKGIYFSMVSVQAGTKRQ
Text: as §7

[3] = Bidirectional permeability of sofosbuvir in caco-2 monolayers; conditions: human, Caco-2, pH 7.4
Procedure: as §1, §2, §3, §4, §5, §6

[4] = SOF + Comp I versus Comp I alone
[5] = plasma, oral, 100 mg, Comp I alone
[6] = in vivo, plasma analyte after SOF + Comp I
[7] = in vivo, plasma analyte after SOF alone
[8] = co-administration with Compound I versus SOF alone

Compound: C[C@H]1O[C@@H](O[C@H]2[C@@H](O)C[C@H](O[C@H]3[C@@H](O)C[C@H](O[C@H]4CC[C@@]5(C)[C@H](CC[C@@H]6[C@@H]5C[C@@H](O)[C@]5(C)[C@@H](C7=CC(=O)OC7)CC[C@]65O)C4)O[C@@H]3C)O[C@@H]2C)C[C@H](O)[C@@H]1O [digoxin, reference compound]
transport of control transport substrate ([1]; control): Transport was observed

permeability through caco-2 cells (in words) ([1]; Caco-2): indicated appropriate membrane integrity
Compound: lucifer yellow [reference compound]

Papp of sofosbuvir, Forward, Average [1]: 0.3 10^−6 cm/s | Papp of sofosbuvir, Forward, Repat 2 [1]: 0.28 10^−6 cm/s | Papp of sofosbuvir, Forward, Repeat 1 [1]: 0.31 10^−6 cm/s | Papp of sofosbuvir, Reverse, Average [1]: 6.93 10^−6 cm/s | Papp of sofosbuvir, Reverse, Repat 2 [1]: 6.82 10^−6 cm/s | Papp of sofosbuvir, Reverse, Repeat 1 [1]: 7.05 10^−6 cm/s | effect of coincubation on permeability/efflux of sofosbuvir, fold increase [1]: ~2 fold
Compound: CC1=CC[C@H](C(=O)N(c2cc(C#CC(C)(C)C)sc2C(=O)O)[C@H]2CC[C@](O)(CO[C@H]3CCOC3)CC2)CC1 [Compound III, 5-(3,3-dimethylbutyn-1-yl)-3-[(cis-4-hydroxy-4-{[(3S)-tetrahydrofuran-3-yloxy]methyl}cyclohexyl) {[(1R)-4-methylcyclohex-3-en-1-yl]carbonyl}amino]thiophene-2-carboxylic acid]

inhibition of BCRP (BCRP): not on other tested transporters | Ctau, Mean ([2]; Comp I alone): 113 ng/mL | AUCtau, % GMR [2, 4]: 112% | Cmax, % GMR [2, 4]: 106% | Ctau, % GMR [2, 4]: 118% | Ctau, Mean ([2]; SOF + Comp I): 135 ng/mL | Cmax [2, 5]: 963 ng/mL | AUC [2, 5]: 7690 ng·h/mL | Cmax ([2]; plasma, oral, Compound I analyte, SOF + Comp I): 1020 ng/mL | AUC ([2]; plasma, oral, SOF + Comp I): 8600 ng·h/mL | inhibition of P-gp (P-gp): marked inhibition | Papp of sofosbuvir, Forward, Average [1]: 0.66 10^−6 cm/s | Papp of sofosbuvir, Forward, Repat 2 [1]: 0.6 10^−6 cm/s | Papp of sofosbuvir, Forward, Repeat 1 [1]: 0.73 10^−6 cm/s | Papp of sofosbuvir, Reverse, Average [1]: 7.39 10^−6 cm/s | Papp of sofosbuvir, Reverse, Repat 2 [1]: 7.56 10^−6 cm/s | Papp of sofosbuvir, Reverse, Repeat 1 [1]: 7.22 10^−6 cm/s | effect of coincubation on permeability/efflux of sofosbuvir, fold increase [1]: ~4 fold
Compound: COC[C@H]1C[C@@H](c2ncc(-c3ccc4c(c3)COc3cc5c(ccc6nc([C@@H]7CC[C@H](C)N7C(=O)[C@@H](NC(=O)OC)C(C)C)[nH]c65)cc3-4)[nH]2)N(C(=O)[C@H](NC(=O)OC)c2ccccc2)C1 [Compound I, methyl {(2S)-1-[(2S,5S)-2-(9-{2-[(2S,4S)-1-{(2R)-2-[(methoxycarbonyl)amino]-2-phenylacetyl}-4-(methoxymethyl)pyrrolidin-2-yl]-1H-imidazol-5-yl}-1,11-dihydroisochromeno[4′,3′:6,7]naphtho[1,2-d]imidazol-2-yl)-5-methylpyrrolidin-1-yl]-3-methyl-1-oxobutan-2-yl}carbamate]

Compound: CC(C)OC(=O)[C@H](C)N[P@](=O)(OC[C@H]1O[C@@H](n2ccc(=O)[nH]c2=O)[C@](C)(F)[C@@H]1O)Oc1ccccc1 [Sofosbuvir, (S)-isopropyl 2-(((S)-(((2R,3R,4R,5R)-5-(2,4-dioxo-3,4-dihydropyrimidin-1(2H)-yl)-4-fluoro-3-hydroxy-4-methyltetrahydrofuran-2-yl)methoxy)(phenoxy)phosphoryl)amino)propanoate]
AUCinf, % GMR ([2]; SOF + Comp I versus SOF alone): 238% | AUClast, % GMR ([2]; SOF + Comp I versus SOF alone): 238% | Cmax, % GMR ([2]; SOF + Comp I versus SOF alone): 181% | AUC(0-inf) ([2]; in vivo, plasma analyte after SOF + Comp I (100 mg)): 2860 ng·h/mL | Cmax [2, 6]: 1670 ng/mL | AUC(0-t) [2, 6]: 2850 ng·h/mL | AUC(0-inf) [2, 7]: 1200 ng·h/mL | Cmax [2, 7]: 964 ng/mL | AUC(0-t) [2, 7]: 1200 ng·h/mL | AUC increase by Compound I [2, 8]: ~2.4 fold | Cmax increase by Compound I [2, 8]: ~1.8 fold | permeability through caco-2 cells (in words) ([1]; sofosbuvir alone at 10 μM, control compounds for acceptance criteria): low permeability | Papp A→B at 120 min, 10 μM [3]: 0.25 ×10⁻⁶ cm/s | efflux ratio at 120 min, 10 μM [3]: 43.6

permeability through caco-2 cells (in words) ([1]; Caco-2): high permeability
Compound: CC(C)NCC(O)COc1cccc2ccccc12 (stereo not shown) [Propranolol, reference compound]

Papp of sofosbuvir, Forward, Average [1]: 11.1 10^−6 cm/s | Papp of sofosbuvir, Forward, Repat 2 [1]: 0.92 10^−6 cm/s | Papp of sofosbuvir, Forward, Repeat 1 [1]: 0.46 10^−6 cm/s | Papp of sofosbuvir, Reverse, Average [1]: 1.09 10^−6 cm/s | Papp of sofosbuvir, Reverse, Repat 2 [1]: 11.7 10^−6 cm/s | Papp of sofosbuvir, Reverse, Repeat 1 [1]: 10.5 10^−6 cm/s | effect of coincubation on permeability/efflux of sofosbuvir, fold increase [1]: ~2 fold
Compound: Fc1ccccc1-c1nc2ccn(Cc3ccc(-c4ccc(C(F)(F)F)cc4C(F)(F)F)nn3)cc-2n1 [Compound V, 5-((6-(2,4-bis(trifluoromethyl)phenyl)pyridazin-3-yl)methyl)-2-(2-fluorophenyl)-5H-imidazo[4,5-c]pyridine]
